Like-named read-outs stand apart in the source and are kept apart here.
Test: Phase II clinical trial: pharmacokinetics of plasma Rabeximod (PK subgroup)
Format: in vivo, human
Conditions: for half-life / Tmax / AUC(0-t) / AUC / Cmax: human, plasma, oral
Description: A total of 9 visits occurred over the course of the study (screening, randomisation [Day 0, baseline]. Day 1, and Weeks 2, 4, 6, 8, 12 and 16). The Day 1 visit was included for a subgroup of 36 patients (PK/PD subgroup) who were selected at specified study centres to also participate in the PK/PD aspect of the study. Individual patient duration in the study was approximately 126 days (a 14 day screening period, an 84 day treatment period [12 weeks], and a 28 day [4 week] follow-up period).
In addition to standard efficacy and safety assessments, it was planned that 40 patients in selected study centres would have blood draws at the beginning of the study (Day 1) and at the end of the study (Week 12) to assess the PK of Rabeximod. The actual number of patients who participated in the PK aspect of the study was 36. The ACR20, ACR50 and ACR70 are assessments of RA improvement. The mHAQ is a validated instrument used to assess patient satisfaction in activity of daily living. It was planned to use the Original DAS as the outcome measure, but this was replaced with DAS28 because it is used more frequently in therapeutic studies have been used in many RA studies.
[…] The study drug was to be taken at approximately the same time every morning, starting from Day 1. For the PK/PD subgroup, on the day when the PK/PD sampling was scheduled, study drug was to be taken after the first blood sampling. The study design of the treatment phase was double-blind. All study drug, including placebo, were identical in size, shape, colour and taste, thus allowing double-blind conditions to be maintained. All study personnel and patients remained blinded to the drug treatment assignments. Patients self-administered all doses of study drug end were instructed to return all residual, unused and empty packaging to the clinic at scheduled visits. If dosing compliance was not maintained at between 80% and 120% then the patient was to be withdrawn from the study. Patients in the PK/PD subgroup were to take study drug at the clinic on Day 1 and at Week 12. Compliance was monitored through drug accountability. The Investigator, or designee, maintained an inventory record of study drug received, dispensed, administered and returned to assure the Sponsor that study drug was not dispensed to any person who was not a patient under the terms and conditions set forth in the protocol. Clinically significant protocol deviations were identified based on criteria determined by the project leader to be clinically relevant. Deviations were reported on the CRFs. Additionally, upon completion of the study, certain deviations (e.g., visit window deviations) were identified through the use of SAS® programming.
The PK assessment of Rabeximod was performed in a subgroup of 36 patients during the study.
Concentration-time profiles for plasma Rabeximod following single (Day 1) and repeated administration (Week 12) of Rabeximod were determined.

With `Cc1cc2nc3c4cc(Cl)ccc4n(CC(=O)NCCN(C)C)c3nc2cc1C` [Rabeximod, 9-Chloro-2,3-dimethyl-6-(N,N-dimethylaminoethylamino-2-oxoethyl)-6H-indolo-[2,3-b]quinoxaline] the “impact of methotrexate on the kinetics of Rabeximod” value (co-administered stable dose of methotrexate) was “does not appear to have an impact”, the “increase of geometric mean AUC0-τ, AUC0-t and Cmax with dose” value (dose range 6.25 to 37.5 mg, with stable dose of methotrexate) was “approximately dose-proportional” and the half-life (6.25 mg, Week 12, 6.25 mg, read-out: geometric mean apparent terminal half-life (t1/2) (converted)) was 81.5 h. It also gave a half-life (15 mg, Week 12, 15 mg, read-out: geometric mean apparent terminal half-life (t1/2) (converted)) of 77.1 h, a half-life (37.5 mg, Week 12, 37.5 mg, read-out: geometric mean apparent terminal half-life (t1/2) (converted)) of 111 h and a Tmax (37.5 mg, single administration at 6.25, 15 and 37.5 mg, across all dose levels, with methotrexate, read-out: Tmax (median estimates)) of 5 to 8 h. For the same compound, the Tmax (repeated administration, Week 12, read-out: Tmax (median estimates)) was 2 to 4 h, the AUC(0-t) (po, 6.25 mg, Week 12, 6.25 mg once daily, RA patients, with methotrexate, read-out: AUC0-t, Median) was 2810 ng·h/mL and the half-life (po, 6.25 mg, Week 12, 6.25 mg once daily, RA patients, with methotrexate, read-out: T1/2 (apparent terminal half-life), Geometric mean (converted)) was 81.5 h. The half-life (po, 6.25 mg, Week 12, 6.25 mg once daily, RA patients, with methotrexate, read-out: T1/2 (apparent terminal half-life), Median (converted)) was 86.6 h, the AUC (po, 6.35 mg, Day 1 (equivalent to AUC0-t), 6.35 mg, RA patients, with methotrexate, read-out: AUC0-τ, Geometric mean) was 112 ng·h/mL and the AUC (po, 6.35 mg, Day 1 (equivalent to AUC0-t), 6.35 mg, RA patients, with methotrexate, read-out: AUC0-τ, Median) was 107 ng·h/mL. It also gave a Cmax (po, 6.35 mg, Day 1, 6.35 mg, RA patients, with methotrexate, read-out: Cmax, Geometric mean) of 7.92 ng/mL, a Cmax (po, 6.35 mg, Day 1, 6.35 mg, RA patients, with methotrexate, read-out: Cmax, Median) of 7.05 ng/mL and a Tmax (po, 6.35 mg, Day 1, 6.35 mg, RA patients, with methotrexate, read-out: Tmax, Median) of 8.03 h. It also gave an AUC(0-t) (po, 6.35 mg, Week 12, 6.35 mg once daily, RA patients, with methotrexate, read-out: AUC0-t, Geometric mean) of 2530 ng·h/mL, an AUC (po, 6.35 mg, Week 12, 6.35 mg once daily, RA patients, with methotrexate, read-out: AUC0-τ, Geometric mean) of 587 ng·h/mL and an AUC (po, 6.35 mg, Week 12, 6.35 mg once daily, RA patients, with methotrexate, read-out: AUC0-τ, Median) of 710 ng·h/mL. For the same compound, the Cmax (po, 6.35 mg, Week 12, 6.35 mg once daily, RA patients, with methotrexate, read-out: Cmax, Geometric mean) was 31 ng/mL, the Cmax (po, 6.35 mg, Week 12, 6.35 mg once daily, RA patients, with methotrexate, read-out: Cmax, Median) was 37.5 ng/mL and the Tmax (po, 6.35 mg, Week 12, 6.35 mg once daily, RA patients, with methotrexate, read-out: Tmax, Median) was 2.17 h. It also gave an AUC (po, 15 mg, Day 1 (equivalent to AUC0-t), 15 mg, RA patients, with methotrexate, read-out: AUC0-τ, Geometric mean) of 282 ng·h/mL, an AUC (po, 15 mg, Day 1 (equivalent to AUC0-t), 15 mg, RA patients, with methotrexate, read-out: AUC0-τ, Median) of 254 ng·h/mL and a Cmax (po, 15 mg, Day 1, 15 mg, RA patients, with methotrexate, read-out: Cmax, Geometric mean) of 18.3 ng/mL. The Cmax (po, 15 mg, Day 1, 15 mg, RA patients, with methotrexate, read-out: Cmax, Median) was 16 ng/mL, the Tmax (po, 15 mg, Day 1, 15 mg, RA patients, with methotrexate, read-out: Tmax, Median) was 6.04 h and the AUC(0-t) (po, 15 mg, Week 12, 15 mg once daily, RA patients, with methotrexate, read-out: AUC0-t, Geometric mean) was 4970 ng·h/mL. The AUC(0-t) (po, 15 mg, Week 12, 15 mg once daily, RA patients, with methotrexate, read-out: AUC0-t, Median) was 5590 ng·h/mL, the AUC (po, 15 mg, Week 12, 15 mg once daily, RA patients, with methotrexate, read-out: AUC0-τ, Geometric mean) was 1530 ng·h/mL and the AUC (po, 15 mg, Week 12, 15 mg once daily, RA patients, with methotrexate, read-out: AUC0-τ, Median) was 1480 ng·h/mL. The Cmax (po, 15 mg, Week 12, 15 mg once daily, RA patients, with methotrexate, read-out: Cmax, Geometric mean) was 79.7 ng/mL, the Cmax (po, 15 mg, Week 12, 15 mg once daily, RA patients, with methotrexate, read-out: Cmax, Median) was 91.6 ng/mL and the half-life (po, 15 mg, Week 12, 15 mg once daily, RA patients, with methotrexate, read-out: T1/2 (apparent terminal half-life), Geometric mean (converted)) was 77.1 h. The half-life (po, 15 mg, Week 12, 15 mg once daily, RA patients, with methotrexate, read-out: T1/2 (apparent terminal half-life), Median (converted)) was 77.6 h, the Tmax (po, 15 mg, Week 12, 15 mg once daily, RA patients, with methotrexate, read-out: Tmax, Median) was 4 h and the AUC (po, 37.5 mg, Day 1 (equivalent to AUC0-t), 37.5 mg, RA patients, with methotrexate, read-out: AUC0-τ, Geometric mean) was 689 ng·h/mL. For the same compound, the AUC (po, 37.5 mg, Day 1 (equivalent to AUC0-t), 37.5 mg, RA patients, with methotrexate, read-out: AUC0-τ, Median) was 697 ng·h/mL, the Cmax (po, 37.5 mg, Day 1, 37.5 mg, RA patients, with methotrexate, read-out: Cmax, Geometric mean) was 41.7 ng/mL and the Cmax (po, 37.5 mg, Day 1, 37.5 mg, RA patients, with methotrexate, read-out: Cmax, Median) was 41.8 ng/mL. The Tmax (po, 37.5 mg, Day 1, 37.5 mg, RA patients, with methotrexate, read-out: Tmax, Median) was 5.03 h, the AUC(0-t) (po, 37.5 mg, Week 12, 37.5 mg once daily, RA patients, with methotrexate, read-out: AUC0-t, Geometric mean) was 15900 ng·h/mL and the AUC(0-t) (po, 37.5 mg, Week 12, 37.5 mg once daily, RA patients, with methotrexate, read-out: AUC0-t, Median) was 17500 ng·h/mL. The AUC (po, 37.5 mg, Week 12, 37.5 mg once daily, RA patients, with methotrexate, read-out: AUC0-τ, Geometric mean) was 4040 ng·h/mL, the AUC (po, 37.5 mg, Week 12, 37.5 mg once daily, RA patients, with methotrexate, read-out: AUC0-τ, Median) was 4540 ng·h/mL and the Cmax (po, 37.5 mg, Week 12, 37.5 mg once daily, RA patients, with methotrexate, read-out: Cmax, Geometric mean) was 218 ng/mL. The Cmax (po, 37.5 mg, Week 12, 37.5 mg once daily, RA patients, with methotrexate, read-out: Cmax, Median) was 238 ng/mL, the half-life (po, 37.5 mg, Week 12, 37.5 mg once daily, RA patients, with methotrexate, read-out: T1/2 (apparent terminal half-life), Geometric mean (converted)) was 111 h and the half-life (po, 37.5 mg, Week 12, 37.5 mg once daily, RA patients, with methotrexate, read-out: T1/2 (apparent terminal half-life), Median (converted)) was 107 h. For the same compound, the Tmax (po, 37.5 mg, Week 12, 37.5 mg once daily, RA patients, with methotrexate, read-out: Tmax, Median) was 3.99 h.
